Data: US20260015313A1, “AMINO ACID ACTIVE ESTER AND SALT THEREOF” (PeptiDream Inc., priority 2022, published 2026)

System: tRNA analog (microhelix)
Test: Aminoacylation of tRNA analog (microhelix) with flexizyme dFx, acid PAGE analysis
Assay type: biochemical
Conditions: 5 mM substrate, 50 mM Hepes-K pH 7.5, 50 mM MgCl2, 20% DMSO, on ice overnight, FIG. 1-1, 1-2
Procedure: (§1) In the present embodiment, a tRNA was aminoacylated with the active ester synthesized in Example 1 as a substrate using a flexizyme. In order to conveniently confirm acylation with various amino acids, the acylation reaction was performed using, instead of an initiating tRNA (tRNA^Met), a microhelix corresponding to a short analog of the initiating tRNA and the solution after the reaction was subjected to polyacrylamide gel electrophoresis analysis under acidic conditions in order to confirm the aminoacylation efficiency. The mobility of the band derived from the microhelix is slow when it has been aminoacylated. The aminoacylation efficiency can be determined by comparing the intensity of the microhelix band to that of the acylated microhelix band.
The acylation reaction was carried out overnight on ice in a 50 mM Hepes-K buffer (pH 7.5) and 50 mM MgCl2, with a 25 µM flexizyme (dFx), a 25 μM tRNA analog (microhelix) and a 5 mM substrate added to 20% DMSO. […]
The detailed procedure was as follows: 1 μL of a 500 mM Hepes-K buffer (pH 7.5), 1 μL of a 250 µM flexizyme (dFx) and 1 μL of a 250 µM tRNA analog were added to 3 μL of ultrapure water, and the mixture was heated at 95° C. for 2 minutes, and allowed to cool at room temperature for 5 minutes. […] This solution was analyzed with 20% modified PAGE (50 mM sodium acetate, 6 M urea) under acidic conditions.

Q: For `CC[C@H](C)[C@H](N)C(=O)OCc1cc(Cl)nc(Cl)c1` [Compound No. 21, (2,6-dichloropyridin-4-yl)methyl L-isoleucinate], which “acylation of tRNA analog by the flexizyme (aminoacylation efficiency)” value (“acylation of tRNA analog” for short) is on record?
A: efficiently acylated

Q: Which “acylation of tRNA analog” value does the source give for `NCC(=O)OCc1cc(Cl)nc(Cl)c1` [Compound No. 99, (2,6-dichloropyridin-4-yl)methyl glycinate] here?
A: efficiently acylated

System: tRNA analog (microhelix)
Test: Aminoacylation of tRNA analog (microhelix) with flexizyme eFx, acid PAGE analysis
Assay type: biochemical
Conditions: 5 mM substrate, 50 mM Hepes-K pH 7.5, 600 mM MgCl2, 20% DMSO, on ice overnight, FIG. 1-3, 1-4
Procedure: as §1
The acylation reaction was carried out overnight on ice in a 50 mM Hepes-K buffer (pH 7.5) and 600 mM MgCl2, with a 25 µM flexizyme (eFx), a 25 µM tRNA analog (microhelix) and 5 mM substrate added to 20% DMSO. […]
The detailed procedure was as follows: 4 μL of a 500 mM Hepes-K buffer (pH 7.5), 4 μL of a 250 µM flexizyme (eFx) and 4 μL of a 250 µM tRNA analog were added to 12 μL of ultrapure water, and the mixture was heated at 95° C. for 3 minutes, and allowed to cool at room temperature for 5 minutes. […] This solution was analyzed with 20% modified PAGE (50 mM sodium acetate, 6 M urea) under acidic conditions.

Q: Which “acylation of tRNA analog” value does the source give for `N[C@@H](CCc1ccccc1)C(=O)OCC(F)(F)F` [Compound No. 47, 2,2,2-trifluoroethyl (S)-2-amino-4-phenylbutanoate] here?
A: efficiently acylated

System: not listed separately
Test: Differential scanning calorimetry (DSC) hazard determination (TDSC, QDSC; Category V Hazardous materials, self-reactive substances)
Assay type: physicochemical
Conditions: about 2 mg, SUS pressure-resistant cell, to 500° C. at 10° C./min, nitrogen, line through 2,4-dinitrotoluene and benzoyl peroxide, on or above = hazardous, FIG. 2
Excerpt: Differential scanning calorimetry (DSC) can be used as a method for determining the hazard of an amino acid active ester (Akiyoshi et al., Netsu Sokutei 2018, 45(4), 161-167.; Sakira Kaneko, Netsu Sokutei 1995, 22(1), 36-43.). DSC is an effective means for assessing the hazard of a self-reactive substance, because it can measure the reaction starting temperature (TDSC) and the reaction heat (QDSC) with a trace amount of sample. […] In Japan, DSC is used as a test to determine whether a chemical substance falls under the Category V Hazardous materials (self-reactive substances) under the Japanese Fire Service Act.
Examples of the test for determining whether a chemical substance falls under the Category V Hazardous materials (self-reactive substances) in the Japanese Fire Service Act include a method involving using 2,4-dinitrotoluene and benzoyl peroxide as reference compounds, plotting the reference points of QDSC and TDSC for each of the compounds and drawing a straight line connecting the two points as the hazard determination line.
The QDSC and TDSC values of 2,4-dinitrotoluene (Compound No. 115) and benzoyl peroxide (Compound No. 116) were taken from the following literature: DSC Data Collection for Reactive Substances (2) (RIIS-SD-89), https://www.jniosh.johas.go.jp/publication/houkoku/houkoku_2007_03_list.html.
The detailed procedure for differential scanning calorimetry (DSC) is as follows:
The amino acid active ester (about 2 mg), which had been sealed in a SUS pressure-resistant cell, was set in a heat flux type differential scanning calorimeter, and heated to 500° C. at 10° C./min in an atmosphere of nitrogen 50 mL/min. The sealing into the cell was carried out in atmospheric air, and a blank cell was used as a reference material. The value of indium (In) measured under the same conditions was used as a standard for correction.
In FIG. 2, the dotted line indicates the hazard determination line. […] The abscissa axis indicates the log(TDSC-25) value, and the ordinate axis indicates the log QDSC value. In FIG. 2, -L-Hph-DBE_HCl indicates the hydrochloride of 3,5-dinitrobenzyl (S)-2-amino-4-phenylbutanoate (Compound No. 114), Gly-DBE_HCl indicates the hydrochloride of 3,5-dinitrobenzyl glycinate (Compound No. 112), -L-Ile-DBE_HCl indicates the hydrochloride of 3,5-dinitrobenzyl L-isoleucinate (Compound No. 111), -L-W7N-DBE_HCl indicates the hydrochloride of 3,5-dinitrobenzyl (S)-2-amino-3-(1H-pyrrolo[2,3-b]pyridin-3-yl)propanoate (Compound No. 113), -L-Ile-DCPE_HCl indicates (2,6-dichloropyridin-4-yl)methyl L-isoleucinate (Compound No. 21), -L-W7N-TEE_HCl indicates 2,2,2-trifluoroethyl (S)-2-amino-3-(1H-pyrrolo[2,3-b]pyridin-3-yl)propanoate (Compound No. 81), and Gly-DCPE_HCl indicates (2,6-dichloropyridin-4-yl)methyl glycinate (Compound No. 99).

Q: For `N[C@@H](CCc1ccccc1)C(=O)OCc1cc([N+](=O)[O-])cc([N+](=O)[O-])c1` [L-Hph-DBE_HCl, 3,5-dinitrobenzyl (S)-2-amino-4-phenylbutanoate], which “position of log QDSC vs log(TDSC-25) plot relative to hazard determination line” value is on record?
A: above the hazard determination line

Q: For `CC[C@H](C)[C@H](N)C(=O)OCc1cc(Cl)nc(Cl)c1.Cl` [L-Ile-DCPE_HCl, (2,6-Dichloropyridin-4-yl)methyl L-isoleucinate hydrochloride], which “position of log QDSC vs log(TDSC-25) plot relative to hazard determination line” value is on record?
A: below the hazard determination line

Q: With `CC[C@H](C)[C@H](N)C(=O)OCc1cc([N+](=O)[O-])cc([N+](=O)[O-])c1` [L-Ile-DBE_HCl, 3,5-dinitrobenzyl L-isoleucinate] as the compound, how does the “position of log QDSC vs log(TDSC-25) plot relative to hazard determination line” value read?
A: above the hazard determination line

Q: Which “position of log QDSC vs log(TDSC-25) plot relative to hazard determination line” value does the source give for `NCC(=O)OCc1cc([N+](=O)[O-])cc([N+](=O)[O-])c1` [Gly-DBE_HCl, 3,5-dinitrobenzyl glycinate] here?
A: above the hazard determination line

Q: With `Cl.NCC(=O)OCc1cc(Cl)nc(Cl)c1` [Gly-DCPE_HCl, (2,6-Dichloropyridin-4-yl)methyl glycinate hydrochloride] as the compound, how does the “position of log QDSC vs log(TDSC-25) plot relative to hazard determination line” value read?
A: below the hazard determination line

Q: Which “position of log QDSC vs log(TDSC-25) plot relative to hazard determination line” value does the source give for `N[C@@H](Cc1c[nH]c2ncccc12)C(=O)OCc1cc([N+](=O)[O-])cc([N+](=O)[O-])c1` [L-W7N-DBE_HCl, 3,5-dinitrobenzyl (S)-2-amino-3-(1H-pyrrolo[2,3-b]pyridin-3-yl)propanoate] here?
A: above the hazard determination line

Q: For `Cl.Cl.N[C@@H](Cc1c[nH]c2ncccc12)C(=O)OCC(F)(F)F` [L-W7N-TEE_HCl, 2,2,2-Trifluoroethyl (S)-2-amino-3-(1H-pyrrolo[2,3-b]pyridin-3-yl)propanoate dihydrochloride], which “position of log QDSC vs log(TDSC-25) plot relative to hazard determination line” value is on record?
A: below the hazard determination line
